In patent US10774051B2, “6-membered heterocyclic derivatives and pharmaceutical composition comprising the same” (Shionogi & Co., Ltd., priority 2015, dated 2020):

The compounds below were run against human P2X7 receptor (Homo sapiens, UniProt Q99572, R270H/Y155H) (assay: Evaluation of human P2X7 receptor inhibitory activity (Yo-Pro uptake, BzATP stimulation, FLIPR TETRA)). Settings: 1321N1 cells stably expressing human P2X7 receptor; BzATP stimulation, Yo-Pro uptake; read-out: IC50 (antagonistic activity for the human P2X7 receptor).
Type: cell-based
How it was run: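 Yo-Pro dye uptake triggered by BzATP was monitored by FLIPR in human P2X7-transfected 1321N1 cells (SNP variant) in HEPES-buffered HBSS, pH 7.4-7.5. Compound was dispensed 8 min post-stimulation, then signal read for 20 min; IC50 derived logistically from inhibition of the fluorescence range.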
In the case of `COc1cn(Cc2ccc(F)c(Cl)c2)c(Nc2cc3ncccc3cc2C)nc1=O` [Compound I-0771], the IC50 is reported as 43 nM. For `COc1cn(Cc2cc(F)cc(F)c2)c(Nc2cc3ncccc3cc2C)nc1=O` [Compound I-0774], the IC50 was 110 nM. `Cc1nc2cc(C)c(Nc3nc(=O)c(Cl)cn3Cc3ccccc3)cc2s1` [Compound I-0786] showed an IC50 of 25 nM. With `Cc1nc2cc(C)c(Nc3nc(=O)c(F)cn3Cc3ccccc3)cc2s1` [Compound I-0788] the IC50 was 12 nM. Work on `CCOc1cc(Nc2nc(=O)c(OC)cn2Cc2ccc(F)c(Cl)c2)c(C)cc1C` [Compound I-0792] yielded an IC50 of 9 nM. Work on `CCc1cc(F)c(OC)cc1Nc1nc(=O)c(OC)cn1Cc1cc(F)cc(F)c1` [Compound I-0817] yielded an IC50 of 4 nM. Work on `COc1cn(Cc2cc(F)cc(Cl)c2)c(Nc2cc(Cl)cc3[nH]ccc23)nc1=O` [Compound I-0821] yielded an IC50 of 5 nM. `COc1cn(Cc2ccc(F)c(Cl)c2)c(Nc2ccc3oc(C)cc3c2C)nc1=O` [Compound I-0825] gave an IC50 of 9 nM. `COc1cn(Cc2ccc(F)c(Cl)c2)c(Nc2c(C)cc3oc(C)cc3c2C)nc1=O` [Compound I-0833] showed an IC50 of 39 nM. `Cc1cc(OC(F)F)c(C)cc1Nc1nc(=O)c(F)cn1Cc1cc(F)cc(F)c1` [Compound I-0836] showed an IC50 of 2 nM.

Same assay, conditions: antagonistic activity for the human P2X7 receptor; read-out: IC50
Compound `CCOc1cn(Cc2ccccc2)c(Nc2cc(OC)c(OC)cc2C)nc1=O` [Compound I-0759] has an IC50 of 10 to 100 nM. In the case of `COc1cn(Cc2cc(F)c(F)c(F)c2)c(Nc2cc3nc(C)sc3cc2C)nc1=O` [Compound I-0760], the IC50 is reported as 10 to 100 nM. For `COc1cn(Cc2ccccc2)c(Nc2cccc(C)c2F)nc1=O` [Compound I-0761], the IC50 was 100 to 500 nM. For `COc1cn(Cc2ccccc2)c(Nc2cccc(C)c2F)nc1=O` [Compound I-0762], the IC50 was 100 to 500 nM. Work on `COc1cc(C)c(Nc2nc(=O)c(OC)cn2Cc2cc(F)c(F)c(F)c2)cc1Cl` [Compound I-0763] yielded an IC50 of under 10 nM. With `COc1cn(Cc2ccc(F)c(F)c2)c(Nc2cc(-c3cccnc3)ccc2C)nc1=O` [Compound I-0764] the IC50 was under 10 nM. `COc1cn(Cc2cc(F)cc(Cl)c2)c(Nc2cc(-c3cccnc3)ccc2C)nc1=O` [Compound I-0765] showed an IC50 of 10 to 100 nM. For `COc1cn(Cc2cc(F)cc(F)c2)c(Nc2cc(-c3cccnc3)ccc2C)nc1=O` [Compound I-0766], the IC50 was under 10 nM. `COc1cn(Cc2ccc(F)c(F)c2)c(Nc2cc(-c3ccc(C)o3)ccc2C)nc1=O` [Compound I-0767] showed an IC50 of 10 to 100 nM. `COc1cn(Cc2cc(F)cc(Cl)c2)c(Nc2cc(-c3ccc(C)o3)ccc2C)nc1=O` [Compound I-0768] was tested, and the IC50 was 10 to 100 nM. `COc1cn(Cc2cc(F)cc(F)c2)c(Nc2cc(-c3ccc(C)o3)ccc2C)nc1=O` [Compound I-0769] was tested, and the IC50 was 10 to 100 nM. `COc1cn(Cc2ccccc2)c(Nc2cc3ncccc3cc2C)nc1=O` [Compound I-0770] gave an IC50 of 100 to 500 nM. `COc1cn(Cc2ccc(F)c(F)c2)c(Nc2cc3ncccc3cc2C)nc1=O` [Compound I-0772] showed an IC50 of 10 to 100 nM. With `COc1cn(Cc2cc(F)cc(Cl)c2)c(Nc2cc3ncccc3cc2C)nc1=O` [Compound I-0773] the IC50 was 100 to 500 nM. With `COc1cn(Cc2ccc(F)c(Cl)c2)c(Nc2cc(C(C)(C)O)ccc2C)nc1=O` [Compound I-0775] the IC50 was 10 to 100 nM. `COc1cn(Cc2cc(F)cc(Cl)c2)c(Nc2cc(C(C)(C)O)ccc2C)nc1=O` [Compound I-0776] gave an IC50 of 10 to 100 nM. `CCOc1cc(Nc2nc(=O)c(OC)cn2Cc2cc(F)c(F)c(F)c2)c(C)cc1C` [Compound I-0777] gave an IC50 of under 10 nM. With `Cc1nc2cc(C)c(Nc3nc(=O)c(F)cn3Cc3ccc(F)c(Cl)c3)cc2s1` [Compound I-0778] the IC50 was under 10 nM. In the case of `COc1cc(Nc2nc(=O)c(OC)cn2Cc2ccc(F)c(F)c2)c(C)cc1F` [Compound I-0779], the IC50 is reported as under 10 nM. For `COc1cc(Nc2nc(=O)c(OC)cn2Cc2cc(F)cc(Cl)c2)c(C)cc1F` [Compound I-0780], the IC50 was 10 to 100 nM. `COc1cc(Nc2nc(=O)c(OC)cn2Cc2cc(F)cc(F)c2)c(C)cc1F` [Compound I-0781] gave an IC50 of 10 to 100 nM. For `COc1cn(Cc2ccccc2)c(Nc2cc(-c3ccnn3C)ccc2C)nc1=O` [Compound I-0782], the IC50 was 100 to 500 nM. `COc1cn(Cc2ccc(F)c(F)c2)c(Nc2cc(-c3ccnn3C)ccc2C)nc1=O` [Compound I-0783] showed an IC50 of 10 to 100 nM. For `COc1cn(Cc2cc(F)cc(F)c2)c(Nc2cc(-c3ccnn3C)ccc2C)nc1=O` [Compound I-0784], the IC50 was 10 to 100 nM. With `COc1cn(Cc2cc(F)cc(F)c2)c(Nc2cc(C(C)(C)O)ccc2C)nc1=O` [Compound I-0785] the IC50 was 10 to 100 nM. With `Cc1nc2cc(C)c(Nc3nc(=O)c(Cl)cn3Cc3ccc(F)c(Cl)c3)cc2s1` [Compound I-0787] the IC50 was under 10 nM. `CCOc1cc(Nc2nc(=O)c(OC)cn2Cc2cc(F)cc(Cl)c2)c(C)cc1C` [Compound I-0789] was tested, and the IC50 was under 10 nM. For `CCOc1cc(Nc2nc(=O)c(OC)cn2Cc2ccccc2)c(C)cc1C` [Compound I-0790], the IC50 was under 10 nM. Compound `CCOc1cc(Nc2nc(=O)c(OC)cn2Cc2cccc(Cl)c2)c(C)cc1C` [Compound I-0791] has an IC50 of under 10 nM. `CCOc1cc(Nc2nc(=O)c(OC)cn2Cc2ccc(F)c(F)c2)c(C)cc1C` [Compound I-0793] showed an IC50 of under 10 nM. `CCOc1cc(Nc2nc(=O)c(OC)cn2Cc2cc(F)cc(F)c2)c(C)cc1C` [Compound I-0794] showed an IC50 of under 10 nM. Compound `CCOc1cn(Cc2ccc(F)c(Cl)c2)c(Nc2cc(OC)c(OC)cc2C)nc1=O` [Compound I-0795] has an IC50 of under 10 nM. In the case of `CCc1cc2c(cc1Nc1nc(=O)c(OC)cn1Cc1ccccc1)OCCO2` [Compound I-0796], the IC50 is reported as 10 to 100 nM. `CCc1cc2c(cc1Nc1nc(=O)c(OC)cn1Cc1cc(F)cc(F)c1)OCCO2` [Compound I-0797] gave an IC50 of 10 to 100 nM. Compound `CCc1cc2c(cc1Nc1nc(=O)c(OC)cn1Cc1ccc(F)c(Cl)c1)OCCO2` [Compound I-0798] has an IC50 of 10 to 100 nM. `COc1cn(Cc2ccc(F)c(Cl)c2)c(Nc2ccc3occc3c2C)nc1=O` [Compound I-0799] was tested, and the IC50 was under 10 nM. With `COc1cn(Cc2ccccc2)c(Nc2cc(C)c(OCC(F)(F)F)cc2C)nc1=O` [Compound I-0800] the IC50 was 10 to 100 nM. `COc1cn(Cc2ccccc2)c(Nc2cc(C)c(Cl)cc2F)nc1=O` [Compound I-0801] was tested, and the IC50 was 100 to 500 nM. In the case of `COc1cn(Cc2cc(F)c(F)c(F)c2)c(Nc2cc(-c3cscn3)ccc2C)nc1=O` [Compound I-0802], the IC50 is reported as under 10 nM. With `COc1cn(Cc2cc(F)c(F)c(F)c2)c(Nc2cc(N3CCCC3=O)ccc2C)nc1=O` [Compound I-0803] the IC50 was 10 to 100 nM. `COc1cc(C)c(Nc2nc(=O)c(OC)cn2Cc2cc(F)c(F)c(F)c2)cc1F` [Compound I-0804] was tested, and the IC50 was under 10 nM. With `COc1cn(Cc2cc(F)c(F)c(F)c2)c(Nc2cc(OC(F)F)c(C)cc2C)nc1=O` [Compound I-0805] the IC50 was under 10 nM. `COc1cn(Cc2cc(F)cc(F)c2)c(Nc2cc(C)c(OCC(F)(F)F)cc2C)nc1=O` [Compound I-0806] showed an IC50 of 10 to 100 nM. With `COc1cn(Cc2ccc(F)c(Cl)c2)c(Nc2cc(C)c(OCC(F)(F)F)cc2C)nc1=O` [Compound I-0807] the IC50 was 10 to 100 nM. `COc1cn(Cc2ccc(Cl)s2)c(Nc2cc(C)c(C)cc2C)nc1=O` [Compound I-0808] gave an IC50 of under 10 nM. Work on `COc1cn(Cc2ccc(F)c(Cl)c2)c(Nc2cc(Cl)c(F)cc2C)nc1=O` [Compound I-0809] yielded an IC50 of 10 to 100 nM. Compound `COc1cn(Cc2ccc(F)c(F)c2)c(Nc2cc(Cl)c(F)cc2C)nc1=O` [Compound I-0810] has an IC50 of 10 to 100 nM. In the case of `COc1cn(Cc2cc(F)cc(Cl)c2)c(Nc2cc(Cl)c(F)cc2C)nc1=O` [Compound I-0811], the IC50 is reported as 10 to 100 nM. With `COc1cn(Cc2cc(F)cc(F)c2)c(Nc2cc(Cl)c(F)cc2C)nc1=O` [Compound I-0812] the IC50 was 10 to 100 nM. `CCc1cc(F)c(OC)cc1Nc1nc(=O)c(OC)cn1Cc1ccccc1` [Compound I-0813] was tested, and the IC50 was under 10 nM. `CCc1cc(F)c(OC)cc1Nc1nc(=O)c(OC)cn1Cc1ccc(F)c(Cl)c1` [Compound I-0814] gave an IC50 of under 10 nM. With `CCc1cc(F)c(OC)cc1Nc1nc(=O)c(OC)cn1Cc1ccc(F)c(F)c1` [Compound I-0815] the IC50 was under 10 nM. Compound `CCc1cc(F)c(OC)cc1Nc1nc(=O)c(OC)cn1Cc1cc(F)cc(Cl)c1` [Compound I-0816] has an IC50 of under 10 nM. Work on `COc1cn(Cc2ccccc2)c(Nc2cc(Cl)cc3[nH]ccc23)nc1=O` [Compound I-0818] yielded an IC50 of 10 to 100 nM. `COc1cn(Cc2ccc(F)c(Cl)c2)c(Nc2cc(Cl)cc3[nH]ccc23)nc1=O` [Compound I-0819] showed an IC50 of 10 to 100 nM. `COc1cn(Cc2ccc(F)c(F)c2)c(Nc2cc(Cl)cc3[nH]ccc23)nc1=O` [Compound I-0820] gave an IC50 of 10 to 100 nM. Work on `COc1cn(Cc2cc(F)cc(F)c2)c(Nc2cc(Cl)cc3[nH]ccc23)nc1=O` [Compound I-0822] yielded an IC50 of 10 to 100 nM. `COc1cn(Cc2ccc(F)c(Cl)c2)c(Nc2cc3c(cc2C)OC(F)(F)C(F)(F)O3)nc1=O` [Compound I-0823] gave an IC50 of 100 to 500 nM. Compound `COc1cn(Cc2ccc(F)c(Cl)c2)c(Nc2ccc3c(c2C)OC(F)(F)C(F)(F)O3)nc1=O` [Compound I-0824] has an IC50 of 10 to 100 nM. Work on `COc1nc2ccc(Nc3nc(=O)c(OC)cn3Cc3ccc(F)c(Cl)c3)c(C)c2s1` [Compound I-0826] yielded an IC50 of 10 to 100 nM. In the case of `COc1cn(Cc2ccccc2)c(Nc2cc(-c3ccccc3)ccc2C)nc1=O` [Compound I-0827], the IC50 is reported as 10 to 100 nM. `COc1cn(Cc2ccc(F)c(Cl)c2)c(Nc2cc(-c3ccccc3)ccc2C)nc1=O` [Compound I-0828] gave an IC50 of 10 to 100 nM. For `COc1cn(Cc2cc(F)cc(F)c2)c(Nc2cc(-c3ccccc3)ccc2C)nc1=O` [Compound I-0829], the IC50 was 10 to 100 nM. `COc1nc2ccc(Nc3nc(=O)c(OC)cn3Cc3cc(F)cc(F)c3)c(C)c2s1` [Compound I-0830] was tested, and the IC50 was 10 to 100 nM. For `COc1ncccc1-c1ccc(C)c(Nc2nc(=O)c(OC)cn2Cc2cc(F)cc(F)c2)c1` [Compound I-0831], the IC50 was under 10 nM. With `COc1ncccc1-c1ccc(C)c(Nc2nc(=O)c(OC)cn2Cc2cc(F)c(F)c(F)c2)c1` [Compound I-0832] the IC50 was under 10 nM. Work on `Cc1cc(OC(F)F)c(C)cc1Nc1nc(=O)c(F)cn1Cc1ccc(F)c(Cl)c1` [Compound I-0834] yielded an IC50 of under 10 nM. Compound `Cc1cc(OC(F)F)c(C)cc1Nc1nc(=O)c(F)cn1Cc1ccc(F)c(F)c1` [Compound I-0835] has an IC50 of under 10 nM.
